Experimental data: paper PMC9604546, “Drosophila HisT is a specific histamine transporter that contributes to histamine recycling in glia” (Science Advances, 2022)

Columns and labels:
Format in all cases: cell-based
human OCT2 [1] = biological target: T1, human OCT2 (Homo sapiens, UniProt O15244); experiment: competition of [3H]-histamine uptake in transfected HEK293T cells; conditions: 2.5 uM [3H]-histamine, 30 min, 37 C, pH 7.4; competitor concentration for OCT2 not given
T1 construct: gene SLC22A2
T1 sequence (O15244 1-555): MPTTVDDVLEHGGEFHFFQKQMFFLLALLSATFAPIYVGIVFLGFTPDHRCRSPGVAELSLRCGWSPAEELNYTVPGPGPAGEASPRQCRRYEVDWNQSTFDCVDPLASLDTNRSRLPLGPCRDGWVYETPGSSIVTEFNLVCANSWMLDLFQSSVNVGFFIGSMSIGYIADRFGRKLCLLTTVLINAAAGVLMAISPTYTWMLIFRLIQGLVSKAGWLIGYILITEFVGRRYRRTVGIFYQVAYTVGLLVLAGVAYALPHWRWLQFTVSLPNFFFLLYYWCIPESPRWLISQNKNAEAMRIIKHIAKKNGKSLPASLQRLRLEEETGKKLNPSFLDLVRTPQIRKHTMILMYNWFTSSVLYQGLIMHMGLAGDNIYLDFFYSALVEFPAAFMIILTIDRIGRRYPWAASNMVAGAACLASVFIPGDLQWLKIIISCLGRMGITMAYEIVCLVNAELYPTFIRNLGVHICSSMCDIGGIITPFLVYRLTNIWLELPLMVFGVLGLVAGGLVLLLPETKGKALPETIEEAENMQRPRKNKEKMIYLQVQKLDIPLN

human OCT2 [2] = biological target: T1, human OCT2; experiment: [3H]-histamine uptake in transfected HEK293T cells; conditions: labelled compound; 2.5 uM, 30 min, 37 C, pH 7.4, ECF buffer with 120 mM NaCl
HisT (CG1358) = biological target: T2, HisT (CG1358) (Drosophila melanogaster, UniProt A0A0B4JD50); experiment: [3H]-histamine uptake in transfected HEK293T cells; conditions: labelled compound; 2.5 uM, 30 min, 37 C, pH 7.4, ECF buffer with 120 mM NaCl
T2 sequence (A0A0B4JD50 1-482): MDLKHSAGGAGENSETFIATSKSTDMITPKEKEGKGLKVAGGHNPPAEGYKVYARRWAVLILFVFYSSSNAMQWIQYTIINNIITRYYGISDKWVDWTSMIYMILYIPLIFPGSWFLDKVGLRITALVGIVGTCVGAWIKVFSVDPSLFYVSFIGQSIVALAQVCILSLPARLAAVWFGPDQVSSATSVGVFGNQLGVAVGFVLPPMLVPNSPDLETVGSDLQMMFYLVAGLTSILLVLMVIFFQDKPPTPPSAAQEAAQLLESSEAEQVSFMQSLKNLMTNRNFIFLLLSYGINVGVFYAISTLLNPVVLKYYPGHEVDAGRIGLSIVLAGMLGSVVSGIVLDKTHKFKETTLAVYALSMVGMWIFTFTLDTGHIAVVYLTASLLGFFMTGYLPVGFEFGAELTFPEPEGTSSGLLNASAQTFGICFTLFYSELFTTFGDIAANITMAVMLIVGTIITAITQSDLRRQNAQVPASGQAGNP

Structure (SMILES) | inhibition of [3H]-histamine uptake (human OCT2 [1]) | [3H]-histamine uptake in transfected HEK293T cells (human OCT2 [2]) | [3H]-histamine uptake in transfected HEK293T cells (HisT (CG1358))
NCCC(=O)NCCc1c[nH]cn1 [carcinine] | OCT2-mediated [^3H]-histamine uptake was completely blocked by dopamine, serotonin, and carcinine |  | 
NCCc1ccc(O)c(O)c1 [dopamine] | OCT2-mediated [^3H]-histamine uptake was completely blocked by dopamine, serotonin, and carcinine |  | 
NCCc1c[nH]cn1 [histamine] |  | OCT2), which mediates the low-affinity transport of some monoamine neurotransmitters including histamine | is the only transporter exhibiting histamine uptake activity in vitro
NCCc1c[nH]c2ccc(O)cc12 [serotonin] | OCT2-mediated [^3H]-histamine uptake was completely blocked by dopamine, serotonin, and carcinine |  | 
